From PubChem BioAssay (NCI)
Where “and” joins values, the source holds several entries; their conditions need not be identical. Equal values may be shown once.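 Compound exposure: 48 hours, 5 concentrations, 96-well plates. TGI: total growth inhibition.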

How the values were obtained:
Assay in all cases: NCI tumour cell line growth inhibition, 48 h
[1] = tested on: UACC-257 melanoma
[2] = tested on: RXF 393 renal
[3] = tested on: BT-549 breast
[4] = tested on: COLO 205 colon
[5] = tested on: SK-MEL-28 melanoma
[6] = tested on: MCF7 breast
[7] = tested on: U251 CNS
[8] = tested on: LOX IMVI melanoma
[9] = tested on: HOP-62 NSCLC
[10] = tested on: EKVX NSCLC
[11] = tested on: SW-620 colon
[12] = tested on: OVCAR-4 ovarian
[13] = tested on: DU-145 prostate
[14] = tested on: RPMI-8226 leukemia
[15] = tested on: HCC-2998 colon
[16] = tested on: IGROV1 ovarian
[17] = tested on: HT29 colon
[18] = tested on: A498 renal

SMILES	TGI [1] [µM]	TGI [2] [µM]	TGI [3] [µM]	TGI [4] [µM]	TGI [5] [µM]	TGI [6] [µM]	TGI [7] [µM]	TGI [8] [µM]	TGI [9] [µM]	TGI [10] [µM]	TGI [11] [µM]	TGI [12] [µM]	TGI [13] [µM]	TGI [14]	TGI [15] [µM]	TGI [16] [µM]	TGI [17] [µM]	TGI [18] [µM]
COc1cc2c(c(OC)c1OC)-c1ccc(SC)c(=O)cc1[C@@H](OC(C)=O)CC2	> 100	> 100	> 100	> 100	> 100	> 100	> 100	> 100	> 100	> 100	> 100	> 100	> 100	> 59.9 µM	–	–	–	–
c1ccc(-c2sc(-c3cccs3)cc2Cc2cccs2)cc1	> 10	> 10	> 10	> 10	> 10	> 10	–	> 10	> 10	> 10	> 10	> 10	> 10	> 10 µM	> 10	> 10	> 10	–
CCOc1cc(NC(C)=O)ccc1C(=O)NN1C(=O)C(Oc2ccccc2)C1c1ccccc1 (centres undefined)	> 100	> 100	> 100	> 100	> 100	> 100	–	> 100	> 100	> 100	> 100	> 100	> 100	> 100 µM	> 100	> 100	> 100	> 100
Cc1cc(-c2[nH]c(C(=O)O)cc2I)on1	> 100	> 100	> 100	> 100	> 100	> 100	> 100	–	> 100	> 100	> 100	> 100	> 100	> 100 µM	> 100	> 100	> 100	> 100
O=C1NC(N/N=C\C(O)C(O)C(O)CO)=N/C1=C/c1ccc(Cl)cc1 (centres undefined)	> 100	> 100	> 100	> 100	> 100	> 100	> 100	> 100	> 100	> 100	> 100	57	> 100	> 100 µM and 94.3 µM	–	> 100	> 100	> 100
CCOC(=O)Nc1c(C#N)[n+]([O-])c2cc(Cl)c(Cl)cc2[n+]1[O-]	36.1	33	36.3	30.3	30.7	41.3	32.6	27.9	> 100	–	56.5	29.4	> 100	16.7 µM	–	28.6	37.3	25
NC(=Nc1ccc(O)cc1)S(=O)(=O)O	> 100	> 100	> 100	> 100	–	> 100	> 100	> 100	> 100	> 100	> 100	> 100	> 100	–	> 100	> 100	> 100	> 100
O=C(Nc1nc2c(=O)[nH]cnc2s1)c1ccccc1	> 100	> 100	> 100	> 100	> 100	> 100	> 100	> 100	> 100	> 100	> 100	> 100	> 100	–	> 100	> 100	> 100	> 100
O=C(NCCC(F)(F)C(F)(F)C(F)(F)C(F)(F)F)NC1OC(CO)C(O)C(O)C1O (centres undefined)	> 100	> 100	> 100	> 100	> 100	> 100	> 100	> 100	> 100	–	> 100	> 100	> 100	> 100 µM	> 100	> 100	> 100	–
CCOC(=O)c1sc2nc(SC)nc3c2c1NC(=O)CN3c1cccc(F)c1	> 100	32	21.3	> 100	22.9	> 100	31.9	38.8	28.3	> 100	> 100	42	52.7	46.8 µM	–	> 100	> 100	43.1
O=C(CN1CCN(Cc2ccccc2)CC1)N1CCCn2c1nc1ccccc1c2=O	> 100	–	> 100	> 100	–	> 100	> 100	> 100	> 100	> 100	> 100	> 100	> 100	> 100 µM	> 100	> 100	> 100	> 100
Clc1ccc(Cc2nc3ccc(CCN4CCN(c5ccccc5)CC4)cc3[nH]2)cc1	18.8	19.1	34	15.3	54.3	37.6	26.5	27	30.5	79.9	> 100	37.3	44	54.5 µM	–	90.6	22.5	32.5
Cc1ccc(OCC2OC(n3cnc4c(N(C)C)nc(Br)nc43)CC2Oc2ccc(C)cc2)cc1 (centres undefined)	> 100	–	> 100	> 100	> 100	> 100	> 100	> 100	–	> 100	> 100	> 100	> 100	> 100 µM	> 100	> 100	> 100	> 100
CC1(C)[C@@H](Cn2cnc3c(N)ncnc32)CC[C@@]1(C)CO	> 100	> 100	> 100	> 100	> 100	> 100	> 100	> 100	> 100	> 100	> 100	> 100	> 100	–	> 100	> 100	> 100	> 100
